Assay results from patent publication US7592308B2, “F3W variants of the lantibiotic mersacidin and its use” (priority 2004, dated 2009).
≈ marks a conversion by molar mass, not a printed value. Entries after “also recorded” stand apart in the source; their conditions may differ. Where two headings read alike, the source gives them in different places. Square brackets hold non-standard residues; d marks the D form. Ends that are not written are not given here. Dhb = C/C=C(\N)C(=O)O; Dha = C=C(N)C(=O)O

How the values were obtained:
[1] = tested on: M. luteus; conditions: data of Szekat et al., cited from earlier work; for fold greater MIC measured against M. luteus: compared with mersacidin
[2] = tested on: S. aureus CS; format: cell-based, Staphylococcus aureus
Procedure: (§1) MIC tests were performed with some of the variants of Example 2 on a range of other organisms. The results are shown in Tables 9 and 10 (figures in μg/ml): […]

[3] = tested on: S. aureus 1012-13 MRSA; format: cell-based, Staphylococcus aureus
Procedure: as §1

[4] = tested on: S. aureus COL MRSA; format: cell-based, Staphylococcus aureus
Procedure: as §1

[5] = tested on: S. aureus SG511; format: cell-based, Staphylococcus aureus
Procedure: as §1

[6] = tested on: M. luteus 4698; format: cell-based, Micrococcus luteus
Procedure: (§2) A selection of the variants produced in Example 1 above were tested further for activity against a range of bacteria. Minimum inhibitory concentrations (MICs) for all organisms with the exception of Streptococcus pneumoniae were determined by two-fold serial antibiotic dilutions in Mueller-Hinton broth (MHB) supplemented with 50 μg/ml calcium as calcium chloride dihydrate. Minimum inhibitory concentrations (MICs) for S. pneumoniae were determined by two-fold serial antibiotic dilutions in Brain Heart Infusion (BHI) broth supplemented with 50 μg/ml calcium as calcium chloride dihydrate. Antimicrobial agent stock solutions were prepared and stored according to NCCLS standard M7-A6.
(§3) Actively growing broth cultures were diluted to contain […] by adjusting to an absorbance of 0.2-0.3 at 600 nm, equivalent to the McFarland 0.5 standard. They were then diluted a further 1:100 in broth. The assays were performed in duplicate in sterile 96-well microtitre plates in a total volume of 200 μl (160 μl broth, 20 μl antibiotic, 20 μl inoculum) in a concentration range from 64 μg/ml to 0.06 μg/ml. The 12th well of the microtitre plate contained no antimicrobial agent. Vancomycin was used as a reference antibiotic for quality control. Plates were incubated aerobically, shaking, for 18-20 hours at 37° C. with the MIC defined as the lowest concentration of drug that produced no visible growth.

[7] = tested on: E. faecium 4147 VRE; format: cell-based, Enterococcus faecium
Procedure: as §1

[8] = tested on: E. faecium 4147-1; format: cell-based, Enterococcus faecium
Procedure: as §1

[9] = tested on: S. pyogenes 16205; format: cell-based, Streptococcus pyogenes
Procedure: as §1

[10] = tested on: S. pyogenes 13608; format: cell-based, Streptococcus pyogenes
Procedure: as §1

[11] = tested on: S. pneumoniae R6; format: cell-based, Streptococcus pneumoniae; conditions: Table 8B; BHI broth + 50 μg/ml calcium; duplicate
Procedure: as §2, §3

[12] = tested on: E. faecalis 29212; experiment: MIC, two-fold serial dilution in broth; format: cell-based, Enterococcus faecalis; conditions: duplicate
Procedure: as §2, §3

[13] = tested on: E. faecium 7131121; experiment: MIC, two-fold serial dilution in broth; format: cell-based, Enterococcus faecium; conditions: duplicate
Procedure: as §2, §3

[14] = tested on: S. aureus SH1000; format: cell-based, Staphylococcus aureus
Procedure: as §2, §3

[15] = tested on: E. faecium 19579; experiment: MIC, two-fold serial dilution in broth; format: cell-based, Enterococcus faecium; conditions: duplicate
Procedure: as §2, §3

[16] = tested on: S. aureus R33; format: cell-based, Staphylococcus aureus; conditions: Table 8A; MHB + 50 μg/ml calcium; duplicate
Procedure: as §2, §3

[17] = tested on: S. aureus COL; format: cell-based, Staphylococcus aureus; conditions: Table 10; duplicate
Procedure: as §1

[18] = tested on: E. faecium BM4147; experiment: MIC test, further organisms; format: cell-based, Enterococcus faecium; conditions: Table 10; duplicate
Procedure: as §1

[19] = tested on: S. aureus LT 1012-13; experiment: MIC test, further organisms; format: cell-based, Staphylococcus aureus; conditions: Table 10; duplicate
Procedure: as §1

[20] = tested on: S. aureus Mu50; experiment: MIC test, further organisms; format: cell-based, Staphylococcus aureus; conditions: Table 10; duplicate
Procedure: as §1

[21] = Table 8A, MHB + 50 μg/ml calcium
[22] = Table 8A, MHB + 50 μg/ml calcium, duplicate
[23] = Table 8B, MHB + 50 μg/ml calcium, duplicate

Compound: S16I: mersacidin variant produced by Szekat et al. (CTFTLPGGGGVCTLTIECIC; thioether (positions not given here); not fully specified; UniProt P43683 49-68, looked up, variant S16I)
- antibacterial activity (in words) [1]: essentially inactive
- fold greater MIC measured against M. luteus [1]: about 1,000 fold

Compound: C=C1NC(=O)C2NC(=O)[C@H](CC(C)C)NC(=O)C(NC(=O)[C@@H]3CSC(C)C(NC(=O)[C@H](Cc4ccccc4)NC(=O)C4NC(=O)[C@@H](N)CSC4C)C(=O)N[C@@H](CC(C)C)C(=O)N[C@@H](C)C(=O)NCC(=O)NCC(=O)NCC(=O)NCC(=O)N[C@@H](C(C)C)C(=O)N3)C(C)SC[C@H](NC(=O)[C@H](CCC(=O)O)NC1=O)C(=O)N[C@@H]([C@@H](C)CC)C(=O)NC=CSC2C (some centres unmarked) [P6A]
- MIC S. aureus CS [2]: 32 µg/mL (≈ 17.8 µM)
- MIC S. aureus 1012-13 MRSA [3]: 32 µg/mL (≈ 17.8 µM)
- MIC S. aureus COL MRSA [4]: 64 µg/mL (≈ 35.6 µM)
- MIC S. aureus SG511 [5]: 8 µg/mL (≈ 4.44 µM)
- MIC M. luteus 4698 [6]; 4698: 4 µg/mL (≈ 2.22 µM)
- MIC E. faecium 4147 VRE ([7]; Table 9, 16 h): 128-16 h, μg/ml
- MIC E. faecium 4147 VRE ([7]; Table 9, 24 h): 256-24 h μg/ml
- MIC E. faecium 4147-1 ([8]; 4147-1): 256 µg/mL (≈ 142 µM)
- MIC S. pyogenes 16205 [9]: 8 µg/mL (≈ 4.44 µM)
- MIC S. pyogenes 13608 [10]: 4 µg/mL (≈ 2.22 µM)

Compound: G7A: mersacidin variant (CTFTLPAGGGVCTLT[Dha]ECIC; thioether (positions not given here); not fully specified; UniProt P43683 49-68, looked up, variant G7A)
- MIC S. pneumoniae R6 [11]: >64, >64 μg/ml
- MIC E. faecalis 29212 [12, 21]: >64, >64 μg/ml
- MIC E. faecium 7131121 [13, 21]: >64, >64 μg/ml
- MIC S. aureus SH1000 [14, 22]: >64, >64 μg/ml

Compound: G8Q: mersacidin variant (CTFTLPGQGGVCTLT[Dha]ECIC; thioether (positions not given here); not fully specified; UniProt P43683 49-68, looked up, variant G8Q)
- MIC E. faecalis 29212 [12, 21]: >64, >64 μg/ml
- MIC E. faecium 7131121 [13, 21]: >64, >64 μg/ml
- MIC E. faecium 19579 [15, 21]: >64, >64 μg/ml
- MIC S. aureus SH1000 [14, 22]: >64, >64 μg/ml

Compound: C=C1NC(=O)C2NC(=O)[C@H](CC(C)C)NC(=O)C(NC(=O)[C@@H]3CSC(C)C(NC(=O)[C@H](Cc4ccccc4)NC(=O)C4NC(=O)[C@@H](N)CSC4C)C(=O)N[C@@H](CC(C)C)C(=O)N4CCC[C@H]4C(=O)NCC(=O)N[C@@H](Cc4c[nH]cn4)C(=O)NCC(=O)NCC(=O)N[C@@H](C(C)C)C(=O)N3)C(C)SC[C@H](NC(=O)[C@H](CCC(=O)O)NC1=O)C(=O)N[C@@H]([C@@H](C)CC)C(=O)NC=CSC2C (some centres unmarked) [G8H]
- MIC E. faecalis 29212 ([12]; Table 11): >64, >64 μg/ml
- MIC E. faecium 7131121 ([13]; Table 11): >64, >64 μg/ml
- MIC E. faecium 19579 ([15]; Table 11): >64, >64 μg/ml
- MIC S. aureus SH1000 ([14]; SH1000): 64, >64 μg/ml

Compound: F3L: mersacidin variant produced by Szekat et al. (CTLTLPGGGGVCTLT[Dha]ECIC; thioether (positions not given here); not fully specified; UniProt P43683 49-68, looked up, variant F3L)
- MIC against M. luteus [1]: 12.5 µg/mL
- antibacterial activity (in words) [1]: weakly active

Compound: G10Y: mersacidin variant (CTFTLPGGGYVCTLT[Dha]ECIC; thioether (positions not given here); not fully specified; UniProt P43683 49-68, looked up, variant G10Y)
- MIC S. pneumoniae R6 [11]: <4, <4 μg/ml
- MIC M. luteus 4698 [6, 23]: <4, <4 μg/ml
- MIC S. aureus SH1000 [14, 22]: >64, >64 μg/ml

Compound: mersacidin L14I Dha16Dhb (CTFTLPGGGGVCTIT[Dhb]ECIC; thioether (positions not given here); not fully specified; UniProt P43683 49-68, looked up, variant L14I S16T) [mersacidin double variant]
- MIC E. faecalis 29212 ([12]; Table 18, double variants): >64, >64 μg/ml
- MIC E. faecium 7131121 ([13]; Table 18, double variants): >64, >64 μg/ml

Compound: C=C1NC(=O)C2NC(=O)[C@H](CC(C)C)NC(=O)C(NC(=O)[C@@H]3CSC(C)C(NC(=O)[C@H](Cc4ccccc4)NC(=O)C4NC(=O)[C@@H](N)CSC4C)C(=O)N[C@@H](CC(C)C)C(=O)N4CCC[C@H]4C(=O)NCC(=O)NCC(=O)N[C@@H](CC(N)=O)C(=O)NCC(=O)N[C@@H](C(C)C)C(=O)N3)C(C)SC[C@H](NC(=O)[C@H](CCC(=O)O)NC1=O)C(=O)N[C@@H]([C@@H](C)CC)C(=O)NC=CSC2C (some centres unmarked) [G9N]
- MIC S. pneumoniae R6 [11]: >64, >64 μg/ml
- MIC E. faecalis 29212 [12, 21]: >64, >64 μg/ml
- MIC E. faecium 7131121 [13, 21]: >64, >64 μg/ml
- MIC E. faecium 19579 [15, 21]: >64, >64 μg/ml
- MIC S. aureus SH1000 [14, 22]: >64, >64 μg/ml

Compound: C=C1NC(=O)C2NC(=O)[C@H](CC(C)C)NC(=O)C(NC(=O)[C@@H]3CSC(C)C(NC(=O)[C@H](Cc4ccccc4)NC(=O)C4NC(=O)[C@@H](N)CSC4C)C(=O)N[C@@H](CC(C)C)C(=O)N4CCC[C@H]4C(=O)NCC(=O)NCC(=O)NCC(=O)N[C@@H](C)C(=O)N[C@@H](C(C)C)C(=O)N3)C(C)SC[C@H](NC(=O)[C@H](CCC(=O)O)NC1=O)C(=O)N[C@@H]([C@@H](C)CC)C(=O)NC=CSC2C (some centres unmarked) [G10A]
- MIC E. faecalis 29212 [12, 21]: >64, >64 μg/ml
- MIC E. faecium 7131121 [13, 21]: >64, >64 μg/ml
- MIC E. faecium 19579 [15, 21]: >64, >64 μg/ml
- MIC S. aureus R33 [16]: >64, >64 μg/ml
- MIC S. aureus SH1000 [14, 22]: >64, >64 μg/ml

Compound: P6N: mersacidin variant (CTFTLNGGGGVCTLT[Dha]ECIC; thioether (positions not given here); not fully specified; UniProt P43683 49-68, looked up, variant P6N)
- MIC S. aureus COL [17]: >32, >32 μg/ml
- MIC E. faecium BM4147 [18]: >32, >32 μg/ml
- MIC S. aureus LT 1012-13 [19]: >32, >32 μg/ml
- MIC S. aureus Mu50 [20]: >32, >32 μg/ml

Compound: mersacidin E17A (CTFTLPGGGGVCTLT[Dha]ACIC; thioether (positions not given here); not fully specified; UniProt P43683 49-68, looked up, variant E17A) [mersacidin variant produced by Szekat et al]
- antibacterial activity (in words) [1]: essentially inactive; also recorded: no antibacterial activity
- fold greater MIC measured against M. luteus [1]: about 1,000 fold

Compound: CC[C@H](C)[C@@H]1NC(=O)[C@@H]2CSC(C)C(NC(=O)[C@@H]3CSC(C)C(NC(=O)[C@H](Cc4ccccc4)NC(=O)C4NC(=O)[C@@H](N)CSC4C)C(=O)N[C@@H](CC(C)C)C(=O)N4CCC[C@H]4C(=O)NCC(=O)NCC(=O)NCC(=O)NCC(=O)N[C@@H](C(C)C)C(=O)N3)C(=O)N[C@@H](CC(C)C)C(=O)NC(C(=O)N[C@@H](Cc3c[nH]cn3)C(=O)N[C@@H](CCC(=O)O)C(=O)N2)C(C)SC=CNC1=O (some centres unmarked) [Dha16H]
- MIC S. aureus CS [2]: 64 µg/mL (≈ 33.8 µM)
- MIC S. aureus 1012-13 MRSA [3]: 64 µg/mL (≈ 33.8 µM)
- MIC S. aureus COL MRSA [4]: 64 µg/mL (≈ 33.8 µM)
- MIC S. aureus SG511 [5]: 8 µg/mL (≈ 4.22 µM)
- MIC M. luteus 4698 [6]; 4698: 4 µg/mL (≈ 2.11 µM)
- MIC E. faecium 4147 VRE ([7]; 4147 VRE): 128 µg/mL (≈ 67.6 µM)
- MIC E. faecium 4147-1 ([8]; Table 9, 16 h): 128-16 h, μg/ml
- MIC E. faecium 4147-1 ([8]; Table 9, 23 h): 256-23 h μg/ml
- MIC S. pyogenes 16205 [9]: 4 µg/mL (≈ 2.11 µM)
- MIC S. pyogenes 13608 [10]: 4 µg/mL (≈ 2.11 µM)

Compound: G7N: mersacidin variant (CTFTLPNGGGVCTLT[Dha]ECIC; thioether (positions not given here); not fully specified; UniProt P43683 49-68, looked up, variant G7N)
- MIC E. faecalis 29212 [12, 21]: >64, >64 μg/ml
- MIC M. luteus 4698 [6, 23]: <4, <4 μg/ml
